# Source: patent publication US12043599B2, “Herbicidal compounds” (SYNGENTA PARTICIPATIONS AG, priority 2018, dated 2024)
# Columns and labels:
# Assay type in all cases: in vivo
# Conditions in all cases: 250 g/h, evaluated after 13 days
# Lolium perenne (LOLPE) [1] = assay: Pre-emergence herbicidal glasshouse test, percentage damage
# How it was run: (§1)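 Spray: 250 g/h, aqueous acetone/water 50:50 + 0.5% Tween 20; pre-em 1 d after sowing, post-em at 8 d. Glasshouse 24/16 °C, 14 h light, 65% RH, watered twice daily. Read % damage at 13 d, scored 1–5 (5=80-100%).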
# Setaria faberi (SETFA) [2] = assay: as above
# How it was run: as §1
# [3] = system: Alopecurus myosuroides (ALOMY); assay: as above
# How it was run: as §1
# Avena fatua (AVEFA) [4] = assay: as above
# How it was run: as §1
# [5] = system: Echinochloa crus-galli (ECHCG); assay: as above
# How it was run: as §1
# Lolium perenne (LOLPE) [6] = assay: Post-emergence herbicidal glasshouse test, percentage damage
# How it was run: as §1
# [7] = system: Alopecurus myosuroides (ALOMY); assay: as above
# How it was run: as §1
# Avena fatua (AVEFA) [8] = assay: as above
# How it was run: as §1
# [9] = system: Echinochloa crus-galli (ECHCG); assay: as above
# How it was run: as §1
# Setaria faberi (SETFA) [10] = assay: as above
# How it was run: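 Percentage damage was scored 13 days after treatment on a five-point scale (1=0-19% to 5=80-100%). Treatments were post-emergence sprays on 8-day-old wheat, barley and SETFA plants in a glasshouse (24/16 °C day/night, 14 h light, 65% humidity), using acetone/water 50:50 with 0.5% Tween 20 at the stated rates. Wheat additionally received cloquintocet-mexyl safener at 50 g/ha.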
Compound,LOLPE PRE percentage damage (five point scale) (Lolium perenne (LOLPE) [1]),SETFA PRE percentage damage (five point scale) (Setaria faberi (SETFA) [2]),ALOMY PRE percentage damage (five point scale) [3],AVEFA PRE percentage damage (five point scale) (Avena fatua (AVEFA) [4]),ECHCG PRE percentage damage (five point scale) [5],LOLPE POST percentage damage (five point scale) (Lolium perenne (LOLPE) [6]),ALOMY POST percentage damage (five point scale) [7],AVEFA POST percentage damage (five point scale) (Avena fatua (AVEFA) [8]),ECHCG POST percentage damage (five point scale) [9],SETFA POST percentage damage (five point scale) (Setaria faberi (SETFA) [10])
CC#Cc1cc(C)c(C2C(=O)CC3(CCN(C(=O)c4ccccc4)CC3)CC2=O)c(C)c1 [Compound A7],5 (5=80-100%),5 (5=80-100%),5 (5=80-100%),5 (5=80-100%),5 (5=80-100%),5 (5=80-100%),5 (5=80-100%),5 (5=80-100%),5 (5=80-100%),5 (5=80-100%)
"CC#Cc1cc(C)c(C2C(=O)CC3(CCN(C(=O)C4CC4)CC3)CC2=O)c(C)c1 [Compound A8, 3-(cyclopropanecarbonyl)-9-(2,6-dimethyl-4-prop-1-ynyl-phenyl)-3-azaspiro[5.5]undecane-8,10-dione]",5 (5=80-100%),5 (5=80-100%),5 (5=80-100%),5 (5=80-100%),5 (5=80-100%),5 (5=80-100%),5 (5=80-100%),5 (5=80-100%),5 (5=80-100%),5 (5=80-100%)
CC#Cc1cc(C)c(C2C(=O)CC3(CCN(C(=O)N(C)OC)CC3)CC2=O)c(C)c1 [Compound A9],5 (5=80-100%),5 (5=80-100%),5 (5=80-100%),5 (5=80-100%),5 (5=80-100%),5 (5=80-100%),5 (5=80-100%),5 (5=80-100%),5 (5=80-100%),5 (5=80-100%)
"CC#Cc1cc(C)c(C2C(=O)CC3(CCN(C(=O)OC(C)(C)C)CC3)CC2=O)c(C)c1 [Compound A12, tert-butyl 9-(2,6-dimethyl-4-prop-1-ynyl-phenyl)-8,10-dioxo-3-azaspiro[5.5]undecane-3-carboxylate]",5 (5=80-100%),5 (5=80-100%),4 (4=60-79%),4 (4=60-79%),5 (5=80-100%),5 (5=80-100%),5 (5=80-100%),5 (5=80-100%),5 (5=80-100%),5 (5=80-100%)
CC#Cc1cc(C)c(C2C(=O)CC3(CCN(C(=O)N4CCOCC4)CC3)CC2=O)c(C)c1 [Compound A13],5 (5=80-100%),5 (5=80-100%),5 (5=80-100%),5 (5=80-100%),5 (5=80-100%),5 (5=80-100%),5 (5=80-100%),5 (5=80-100%),5 (5=80-100%),5 (5=80-100%)
CC#Cc1cc(C)c(C2C(=O)CC3(CCN(C(=O)c4cnccn4)CC3)CC2=O)c(C)c1 [Compound A16],5 (5=80-100%),5 (5=80-100%),5 (5=80-100%),5 (5=80-100%),5 (5=80-100%),5 (5=80-100%),5 (5=80-100%),5 (5=80-100%),5 (5=80-100%),5 (5=80-100%)
CC#Cc1cc(C)c(C2C(=O)CC3(CCN(C(=O)c4ccncn4)CC3)CC2=O)c(C)c1 [Compound A18],5 (5=80-100%),5 (5=80-100%),5 (5=80-100%),5 (5=80-100%),5 (5=80-100%),5 (5=80-100%),5 (5=80-100%),5 (5=80-100%),5 (5=80-100%),5 (5=80-100%)
CC#Cc1cc(C)c(C2=C(OC(=O)OC)CC3(CCN(C(=O)C4(C#N)CC4)CC3)CC2=O)c(C)c1 [Compound P33],5 (5=80-100%),5 (5=80-100%),5 (5=80-100%),5 (5=80-100%),5 (5=80-100%),5 (5=80-100%),5 (5=80-100%),5 (5=80-100%),,5 (5=80-100%)
CC#Cc1cc(C)c(C2=C(OC(=O)OC)CC3(CCN(S(=O)(=O)c4ccccn4)CC3)CC2=O)c(C)c1 [Compound P34],5 (5=80-100%),5 (5=80-100%),5 (5=80-100%),5 (5=80-100%),5 (5=80-100%),5 (5=80-100%),5 (5=80-100%),5 (5=80-100%),,5 (5=80-100%)
